Test results taken from patent US20240315991A1, “USES OF HNF4 ALPHA AGONISTS” (Sanford Burnham Prebys Medical Discovery Institute, priority 2023, published 2024).
“Also recorded” adds a separate entry of the source.

System: C57BL/6 mice fed high fat diet (HFD)
Assay: HFD induced weight gain and hepatic steatosis, NCT in HFD chow for 10 weeks
Assay type: in vivo
Procedure: NCT oral administration. Four-week-old male C57BL/6J (JAX cat #000664) mice were purchased from Jackson laboratory and were maintained in a 12 h light/dark cycle throughout the experiment. Prior to the experiments, mice were acclimated for 2 weeks. Six-week-old mice with similar body weights were randomized to a normal diet (NC), a high fat diet (HFD) (Research Diets, cat #D12492 60 kcal % fat) or HFD containing 4000 ppm NCT (HFD+NCT) (Research Diets, 60 kcal % fat+4000 ppm NCT), which was calculated to provide approximately 400 mg/kg/d NCT. HFD chow containing NCT was made with gray dye to distinguish it from regular HFD chow that had green dye. Mice for each treatment group were placed in separate cages. Equal amounts of fresh chow were provided every week to all mice. Body weight gain and food intake were measured every week for 10 weeks. After 10 weeks of chow treatment, mice were sacrificed for analysis. All animal experiments were approved by the Institutional Animal Care and Use Committee (IACUC) of the Sanford Burnham Prebys Medical Discovery Institute in accordance with national regulations. Sample size was chosen based on the prior study of NCT delivered by IP injection.
Sample collection. Mouse samples were collected as described previously. Briefly, on the final day of treatment mice received dextrose (3 g/kg of body weight) by IP injection to stimulate insulin secretion, which inhibits FFA release from adipocytes, leaving liver-derived FFA as the major source of circulating FFA. One hour later, blood samples were collected via retro-orbital bleeding and mice were euthanized using pentobarbital. Mice were dissected aseptically and liver, epididymal fat, and body weights were measured and pictures taken. Dissected liver samples were washed immediately in sterile cold PBS and cut into small pieces. Half of the liver samples were snap frozen using liquid nitrogen and stored at −80° C. for RNA, protein isolation, and liver lysate preparations. The other half were fixed in 4% of cold paraformaldehyde (PFA, Santa Cruz Biotechnology, USA) and processed for histomorphometry and immunofluorescence.
Oil Red O staining (in vivo) and analysis. Oil red O staining was performed as described previously. Slides containing frozen liver tissue sections from mice were air dried for 10-20 min followed by rehydration in distilled water. Sections were immersed in absolute propylene glycol (Cat #151957, MP Biomedicals, LLC, USA) for 2 min followed by 0.5% in Oil red O solution (Cat #K043, Poly Scientific R&D, USA) for 2 h. Slides were then differentiated in 85% propylene glycol solution, washed with dH2O for 2 h, and mounted using glycerin jelly mounting medium. All slides were scanned at a magnification of ×20 using the Aperio Scanscope FL system (Aperio Technologies Inc., Vista, CA, USA). The liver area stained with oil red O was measured using image J software as described, with some modifications as follow, Oil red O-stained liver images were opened in Image J software. Using the Analyze>Set Scale command, the scale bar of the images was set to 200 μm. RGB images were then converted into grayscale images using the Image>Type>RGB Stack command and were split into red, blue and green channels. Using the Image>Adjust>Threshold command, the threshold was manually set to highlight the Oil red O-stained lipid droplets in the green channel. The same threshold was used for all the images in all treatment groups and the % oil red O-stained area was obtained using the Analyze->Measure tool command. Fold change was calculated by normalizing the values to images from mice fed normal chow.
Triglyceride analysis. The TG level in mouse liver, serum, and stool was measured according to manufacturer's instructions using the Triglyceride calorimetric Assay Kit (Cat #10010303, Cayman Chemicals, USA). Liver and stool TG was normalized with liver and stool weight, respectively. Fold change was calculated by normalizing to values from mice fed NC. […]

[1] = HFD containing 4000 ppm NCT, end of the experiment at 10 weeks

SMILES: O=C(/C=C/c1ccc(O)c(O)c1)NCCc1ccc(O)cc1 [NCT, N-trans caffeoyltyramine]
- body weight compared with mice fed HFD alone (C57BL/6 mice, HFD containing 4000 ppm NCT, 10 weeks): substantially less; also recorded: weighed less
- week at which lower body weight than HFD alone became evident (HFD containing 4000 ppm NCT): 5 week
- body weight less than mice fed HFD [1]: ~10 g
- difference in body weight vs mice fed HFD [1]: 35-40%
- Oil Red O staining of liver (HFD+NCT vs HFD, 10 weeks): decreased
- liver redness (HFD+NCT vs HFD, 10 weeks): increase; also recorded: redder
- liver size (HFD+NCT vs HFD, 10 weeks): reductions
- liver weight (HFD+NCT vs HFD, 10 weeks): lower
- obesity (HFD+NCT vs HFD, 10 weeks): markedly less obese
- subcutaneous fat (HFD+NCT vs HFD, 10 weeks): substantially less
- visceral adiposity (HFD+NCT vs HFD, 10 weeks): reductions
- hepatic TG level (HFD+NCT vs HFD, 10 weeks, normalized to liver weight): decreased
- epididymal fat pad weight (HFD+NCT vs HFD, end of study, normalized with total body weight): no change
- toxicity from NCT consumption (mice fed HFD containing NCT): no evidence of any toxicity
- mitochondrial mass (mice fed HFD containing NCT vs HFD alone): increased
